This is an account of results in US20250115640A1, “NEUROPROTECTIVE POLYPEPTIDE COMPOUND AND APPLICATION THEREOF” (Innerse (Zhuhai) Pharmaceutical Co., Ltd., priority 2021, published 2025).

Values joined by “and” are separate entries in the source; they are usually repeats but may differ in a detail not shown here. Equal values may be shown once. “Also recorded” adds a separate entry of the source. Square brackets hold non-standard residues; d marks the D form. Ends that are not written are not given here. Peptide text beside a SMILES is read from it. βAla = NCCC(=O)O

Series [1] is described as follows: General status observation and autopsy findings of MCAO model animals (Example 6). Format: in vivo, Sprague-Dawley (SD) rats. The note with it: 24 hours after administration; single animals. The protocol: After the adaptation period, animals weighing 240-290 g were selected for dividing into groups for modeling. 24 hours after administration, the animal numbered 2M006 in the S3 group was found dead. […] The data of the above animals was not included in the final statistical analysis. The data of the remaining animals in each group was included in the final statistical analysis. The number of animals included in the final statistical analysis was 8 animals for the model control group, 7 animals for S3 group, 9 animals for the t-PA group and 7 animals for S3+t-PA group.
• Animals observed: all the surviving animals planned to be observed; • Observation time: once a day, and the frequency can be increased if the animal starts to behave abnormal; • What were observed: including but not limited to general manifestations, behavioral status, eye, mouth, nose and mouth area, ear, hair and skin, feces, urine, genital organ and other toxic symptoms. A detailed description was required if there was any abnormality.

The nature of series [2]: Body weight of MCAO model animals (Example 6). The format is in vivo, Sprague-Dawley (SD) rats. The conditions noted are these: individual animal. The procedure: • Animals measured: all the surviving experimental animals planned to be measured; • Measurement time: the body weight was measured at least twice during the adaptation period, once 24 hours before surgery for grouping, and once 24 hours after surgery.
Cerebral ischemia-reperfusion is an acute injury model, wherein the weight of experimental animals will drop dramatically after MCAO modeling. Thus, the weight of experimental animals is one of the most basic sensitive parameters to comprehensively reflect the health status of animals. In this experiment, the body weight of all the animals was monitored on the day before the surgery and on the first day after the surgery, and the changes of animal's body weight were observed and recorded.

The test system of series [3] is acute ischemic stroke due to large vessel occlusion. The conditions noted are these: cited from earlier work.
Series [4] concerns rat model of cerebral ischemia via middle cerebral artery occlusion (MCAO). In words: Rat MCAO cerebral ischemia model, behavioral observation and scoring 0-5 (Example 5). The format is in vivo, SD rats. The conditions noted are these: 3 mg/kg tail vein, scoring 22-24 h after ligation, scale 0-5; for Behavioral score, mean value: group mean, 6 rats. The procedure: In order to determine use of the synthetic peptides provided herein in a neurological disease, SD rats were used to prepare a rat model of cerebral ischemia via middle cerebral artery occlusion (MCAO). These rats were injected intravenously 1-2 hours after ischemia, and subjected for a behavioral observation and scoring after 22-24 hours. After the behavioral observation, the rats were euthanized and their brains were removed, cut to sections and stained with TTC for quantitative analysis, and the cerebral infarct volume % was calculated. The experimental SD rats were weighed and anesthetized with chloral hydrate. After anesthesia, the limbs of the rats were fixed, and the rats were placed in a supine position, connected to the small-animal monitor, and monitored for important physiological parameters such as body temperature, blood pressure and heart rate, etc. The rats were shaved at neck and disinfected with 75% alcohol cotton ball. A middle incision of about 2 cm length was then made on the neck of the rats, and the submandibular gland of the rats was bluntly separated while avoiding damage to the gland. Then, the left common carotid artery (CCA) of the rats was bluntly separated, and the internal carotid artery (ICA) and external carotid artery (ECA) were carefully separated upward along the CCA. Any damage to vagus nerves was avoided during the separation. The CCA and ICA were clamped respectively with two artery clamps, and the distal end of the ECA was cut off. A silicone suture emboli was inserted into the ECA “port” to the ICA artery clamp. Then the artery clamp was quickly loosened and the tip of the suture emboli was pushed forward through the artery clamp quickly before clamping the ICA again. […] The experimental rats were monitored with the small-animal monitor to evaluate if their physiological parameters were normal, and the rats were placed on a small-animal electric blanket to keep their body temperature until they waked up and placed in animal cages. […]

Series [5] has the same test system. In words: Rat MCAO cerebral ischemia model, TTC staining, cerebral infarct volume (Example 5). The note with it: 3 mg/kg tail vein 1-2 h after ligation, TTC after 22-24 h. Format: in vivo, SD rats. The protocol:
In order to determine use of the synthetic peptides provided herein in a neurological disease, SD rats were used to prepare a rat model of cerebral ischemia via middle cerebral artery occlusion (MCAO). These rats were injected intravenously 1-2 hours after ischemia, and subjected for a behavioral observation and scoring after 22-24 hours. After the behavioral observation, the rats were euthanized and their brains were removed, cut to sections and stained with TTC for quantitative analysis, and the cerebral infarct volume % was calculated. The experimental SD rats were weighed and anesthetized with chloral hydrate. After anesthesia, the limbs of the rats were fixed, and the rats were placed in a supine position, connected to the small-animal monitor, and monitored for important physiological parameters such as body temperature, blood pressure and heart rate, etc. The rats were shaved at neck and disinfected with 75% alcohol cotton ball. […] The experimental rats were monitored with the small-animal monitor to evaluate if their physiological parameters were normal, and the rats were placed on a small-animal electric blanket to keep their body temperature until they waked up and placed in animal cages. […] The quantitative analysis of photos after TTC staining was performed using Image J software. […]

`CC[C@H](C)[C@H](NC(=O)[C@H](CO)NC(=O)[C@H](CO)NC(=O)[C@H](CC(C)C)NC(=O)[C@H](CCCCN)NC(=O)[C@H](Cc1c[nH]cn1)NC(=O)CCN)C(=O)N[C@@H](CCC(=O)O)C(=O)N[C@@H](CO)C(=O)N[C@@H](CC(=O)O)C(=O)N[C@H](C(=O)O)C(C)C` [Example S3, beta-Ala-His-Lys-Leu-Ser-Ser-Ile-Glu-Ser-Asp-Val] (H-[βAla]HKLSSIESDV-OH): the “Death and autopsy findings in animals excluded from statistical analysis” value in series [1] is given as “found dead; also recorded: subarachnoid hemorrhage”. Also, the “Body weight D 2, individual animals” value in series [2] (after surgery and administration) is 232.57 g and 249.67 g and 201.22 g and 228.45 g and 202.45 g and 195.33 g and 217.36 g. For the same compound, in series [2] (before surgery (baseline)), the “Body weight D 0, individual animals” value is 281.72 g and 266.48 g and 253.24 g and 286.91 g and 258.64 g and 247.34 g and 273.73 g.
Take YGRKKRRQRRRKLSSIESDV [Example S1]: the Serious adverse events result in series [3] (human, in vivo) is given as “occurred equally between groups”. Besides, the “Proportion of patients with an mRS score of 0-2 within 90 days” value in series [3] (single dose of 2.6 mg/kg, maximum 270 mg, 549 patients, placebo 59.2%) is 61.4%. Further, the “Behavioral score, mean value” in series [4] came to 2.0; in series [4] (listed as NA1), 2.0±0.6. In addition, the “Behavioral score, individual rats No. 1-6” value in series [4] (individual rat) is 2 (4×) and 1 and 3. For the same compound, the “Cerebral infarct volume (TTC quantification), mean value” in series [5] (group mean, 6 rats) is listed as 0.157. For the same compound, the “Cerebral infarct volume (TTC quantification), individual rats No. 1-6” value in series [5] (individual rat, listed as S1(NA1)) was 0.187 and 0.218 and 0.153 and 0.145 and 0.107 and 0.134.
